SMILES strings stand for the structures. Some results are limits rather than exact numbers.

The target of the assay is neurotensin receptor 1 (NTR1) (Homo sapiens (Human), UniProt P30989). The experiment in a line: NTR1 dose response, high-content imaging beta-arrestin-GFP assay in NTR1-U2OS cells. The format is cell-based. The note with it: read-out: EC50.
neurotensin receptor 1 (NTR1), sequence (P30989 whole entry, species assumed): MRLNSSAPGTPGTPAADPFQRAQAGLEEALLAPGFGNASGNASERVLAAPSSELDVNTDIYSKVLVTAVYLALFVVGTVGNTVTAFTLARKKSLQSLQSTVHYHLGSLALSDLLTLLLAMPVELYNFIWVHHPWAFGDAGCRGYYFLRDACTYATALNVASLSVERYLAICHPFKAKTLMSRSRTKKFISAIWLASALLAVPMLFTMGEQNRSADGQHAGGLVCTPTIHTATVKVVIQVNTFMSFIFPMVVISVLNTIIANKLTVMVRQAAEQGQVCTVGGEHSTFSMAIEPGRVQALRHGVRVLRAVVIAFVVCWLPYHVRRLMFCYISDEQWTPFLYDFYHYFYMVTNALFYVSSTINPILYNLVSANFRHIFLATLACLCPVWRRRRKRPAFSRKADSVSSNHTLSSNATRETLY
Turning to `COc1ccccc1C1CCN(c2nc(-c3ccccc3)nc3ccc(N(C)CCO)cc23)CC1` [Example 144, 2-({4-[4-(2-methoxy-phenyl)-piperidin-1-yl]-2-phenyl-quinazolin-6-yl}-methyl-amino)-ethanol], the EC50 is 2 to 10 µM.

For the compound `COCCN(C)c1ccc2nc(-c3ccccc3)nc(N3CCC(c4ccccc4OC)CC3)c2c1` [Example 145, (2-methoxy-ethyl)-{4-[4-(2-methoxy-phenyl)-piperidin-1-yl]-2-phenyl-quinazolin-6-yl}-methyl-amine], the EC50 was above 10 µM.

Regarding `CCCN(C)c1ccc2nc(-c3ccccc3)nc(N3CCC(c4ccccc4OC)CC3)c2c1` [Example 146, {4-[4-(2-methoxy-phenyl)-piperidin-1-yl]-2-phenyl-quinazolin-6-yl}-methyl-propyl-amine], the EC50 was above 10 µM.

On to `COc1ccccc1C1CCN(c2nc(-c3ccccc3)nc3ccc(N(C)CCN4CCOCC4)cc23)CC1` [Example 147, {4-[4-(2-methoxy-phenyl)-piperidin-1-yl]-2-phenyl-quinazolin-6-yl}-methyl-(2-morpholin-4-yl-ethyl)-amine], for which the EC50 is above 10 µM.

For `COc1cccc2c1CN(c1nc(C3CC3)nc3ccc(N(C)CCO)cc13)C2` [Example 149, 2-{[2-cyclopropyl-4-(4-methoxy-1,3-dihydro-isoindol-2-yl)-quinazolin-6-yl]-methyl-amino}-ethanol], the EC50 is above 10 µM.

`COc1cccc2c1CCN(c1nc(C3CC3)nc3ccc(N(C)CCO)cc13)CC2` [Example 150, 2-{[2-cyclopropyl-4-(6-methoxy-1,2,4,5-tetrahydro-benzo[d]azepin-3-yl)-quinazolin-6-yl]-methyl-amino}-ethanol]: the EC50 is above 10 µM.

As for `COc1ccccc1N(C)C1CCCC1Nc1nc(C2CC2)nc2ccc(N(C)CCO)cc12` (stereo not shown) [Example 151, 2-[(2-cyclopropyl-4-{2-[(2-methoxy-phenyl)-methyl-amino]-cyclopentylamino}-quinazolin-6-yl)-methyl-amino]-ethanol], the concentration giving a half-maximal response (EC50) was above 10 µM.

Consider `CCCN(C)c1ccc2nc(C3CC3)nc(NC3CCCC3N(C)c3ccccc3OC)c2c1` (stereo not shown) [Example 152, 2-cyclopropyl-N4-{2-[(2-methoxy-phenyl)-methyl-amino]-cyclopentyl}-N6-methyl-N6-propyl-quinazoline-4,6-diamine], for which the EC50 was above 10 µM.

On to `COc1ccccc1N1CCC(Nc2nc(C3CC3)nc3ccc(N(C)CCO)cc23)C1` (stereo not shown) [Example 154, 2-((2-cyclopropyl-4-((1-(2-methoxyphenyl)pyrrolidin-3-yl)amino)quinazolin-6-yl)(methyl)amino)ethanol], for which the EC50 was above 10 µM.

For the compound `CCCN(C)c1ccc2nc(C3CC3)nc(NC3CCN(c4ccccc4OC)C3)c2c1` (stereo not shown) [Example 155, 2-cyclopropyl-N4-(1-(2-methoxyphenyl)pyrrolidin-3-yl)-N6-methyl-N6-propylquinazoline-4,6-diamine], the concentration for a half-maximal effect (EC50) is above 10 µM.

`COC(=O)Cc1c(C)nc(C2CC2)nc1N1CCC(c2ccccc2OC)CC1` [Example 156, Methyl 2-(2-cyclopropyl-4-(4-(2-methoxyphenyl)piperidin-1-yl)-6-methylpyrimidin-5-yl)acetate]: the concentration giving a half-maximal response (EC50) is above 10 µM.

As for `COc1ccccc1C1CCN(c2nc(C3CC3)nc(C)c2CC(=O)N(C)C)CC1` [Example 157, 2-{2-cyclopropyl-4-[4-(2-methoxy-phenyl)-piperidin-1-yl]-6-methyl-pyrimidin-5-yl}-N,N-dimethyl-acetamide], the 50% effective concentration (EC50) is above 10 µM.

For `CCCN(C)C(=O)Cc1c(C)nc(C2CC2)nc1N1CCC(c2ccccc2OC)CC1` [Example 158, 2-{2-cyclopropyl-4-[4-(2-methoxy-phenyl)-piperidin-1-yl]-6-methyl-pyrimidin-5-yl}-N-methyl-N-propyl-acetamide], the 50% effective concentration (EC50) is above 10 µM.

For the compound `COc1ccccc1C1CCN(c2nc(C3CC3)nc(C)c2CC(=O)Nc2ccccc2)CC1` [Example 160], the EC50 is above 10 µM.

Consider `COC(=O)Cc1c(C)nc(N2CCC(c3ccccc3OC)CC2)nc1C1CC1` [Example 161, {4-cyclopropyl-2-[4-(2-methoxy-phenyl)-piperidin-1-yl]-6-methyl-pyrimidin-5-yl}-acetic acid methyl ester], for which the half-maximal effective concentration (EC50) is above 10 µM.

As for `CCCN(C)C(=O)Cc1c(C)nc(N2CCC(c3ccccc3OC)CC2)nc1C1CC1` [Example 162, 2-{4-cyclopropyl-2-[4-(2-methoxy-phenyl)-piperidin-1-yl]-6-methyl-pyrimidin-5-yl}-N-methyl-N-propyl-acetamide], the half-maximal effective concentration (EC50) was above 10 µM.

In the case of `COc1ccccc1C1CCN(c2nc(C)c(CC(=O)N(C)CCO)c(C3CC3)n2)CC1` [Example 163, 2-{4-cyclopropyl-2-[4-(2-methoxy-phenyl)-piperidin-1-yl]-6-methyl-pyrimidin-5-yl}-N-(2-hydroxy-ethyl)-N-methyl-acetamide], the concentration for a half-maximal effect (EC50) was above 10 µM.

For the compound `CCCN(C)C(=O)Cc1cnc(C2CC2)nc1N1CCC(c2ccccc2OC)CC1` [Example 165, 2-{2-cyclopropyl-4-[4-(2-methoxy-phenyl)-piperidin-1-yl]-pyrimidin-5-yl}-N-methyl-N-propyl-acetamide], the 50% effective concentration (EC50) is above 10 µM.

`COc1ccccc1C1CCN(c2nc(C3CC3)nc3ccc(N(C)CCO)c(F)c23)CC1` [Example 167, 2-({2-Cyclopropyl-5-fluoro-4-[4-(2-methoxy-phenyl)-piperidin-1-yl]-quinazolin-6-yl}-methyl-amino)-ethanol]: the 50% effective concentration (EC50) lay in the range of 0.5 to 2 µM.

As for `COc1ccccc1C1CCN(c2nc(C3CC3)nc3cccc(N(C)CCO)c23)CC1` [Example 168, 2-({2-Cyclopropyl-4-[4-(2-methoxy-phenyl)-piperidin-1-yl]-quinazolin-5-yl}-methyl-amino)-ethanol], the concentration giving a half-maximal response (EC50) is above 10 µM.

In the case of `COc1ccccc1C1CCN(c2nc(C3CC3)nc3cc(N(C)CCO)ccc23)CC1` [Example 169, 2-({2-Cyclopropyl-4-[4-(2-methoxy-phenyl)-piperidin-1-yl]-quinazolin-7-yl}-methyl-amino)-ethanol], the EC50 was in the range of 2 to 10 µM.

As to `CCCN(C)c1ccc2c(N3CCC(c4ccccc4OC)CC3)nc(C3CC3)nc2c1` [Example 170, {2-Cyclopropyl-4-[4-(2-methoxy-phenyl)-piperidin-1-yl]-quinazolin-7-yl}-methyl-propyl-amine], the 50% effective concentration (EC50) lay in the range of 2 to 10 µM.

For `COc1ccccc1C1CCN(c2nc(C3(F)CC3)nc3cc(F)c(N(C)CCO)cc23)CC1` [Example 171], the concentration giving a half-maximal response (EC50) is below 0.5 µM.

In the case of `COc1ccccc1C1CCN(c2nc(C3(F)CC3)nc3cc(Cl)c(N(C)CCO)cc23)CC1` [Example 172], the EC50 lay within 0.5 to 2 µM.

As to `COc1ccccc1C1CCN(c2nc(C3CC3)nc3ccc(N4CC[C@H](O)C4)cc23)CC1` [Example 173, (S)-1-(2-cyclopropyl-4-(4-(2-methoxyphenyl)piperidin-1-yl)quinazolin-6-yl)pyrrolidin-3-ol], the EC50 lay within 0.5 to 2 µM.

As for `COc1ccccc1C1CCN(c2nc(C3CC3)nc3ccc(N4CC[C@H](OC)C4)cc23)CC1` [Example 174, (S)-2-cyclopropyl-4-(4-(2-methoxyphenyl)piperidin-1-yl)-6-(3-methoxypyrrolidin-1-yl)quinazoline], the half-maximal effective concentration (EC50) was in the range of 0.5 to 2 µM.

Regarding `COc1ccccc1C1CCN(c2nc(C3CC3)nc3ccc(N4CC[C@@H](O)C4)cc23)CC1` [Example 175, (R)-1-{2-cyclopropyl-4-[4-(2-methoxy-phenyl)-piperidin-1-yl]-quinazolin-6-yl}-pyrrolidin-3-ol], the EC50 was in the range of 0.5 to 2 µM.

Consider `COc1ccccc1C1CCN(c2nc(C3CC3)nc3ccc(N4CC[C@@H](OC)C4)cc23)CC1` [Example 176, (R)-2-cyclopropyl-4-[4-(2-methoxy-phenyl)-piperidin-1-yl]-6-(3-methoxy-pyrrolidin-1-yl)-quinazoline], for which the half-maximal effective concentration (EC50) lay in the range of 0.5 to 2 µM.

On to `COc1ccccc1C1CCN(c2nc(C3(F)CC3)nc3ccc(N4CC[C@H](O)C4)cc23)CC1` [Example 177, (S)-1-{2-(1-Fluoro-cyclopropyl)-4-[4-(2-methoxy-phenyl)-piperidin-1-yl]-quinazolin-6-yl}-pyrrolidin-3-ol], for which the EC50 lay within 0.5 to 2 µM.

Turning to `COc1ccccc1C1CCN(c2nc(C3(F)CC3)nc3ccc(N4CC[C@@H](O)C4)cc23)CC1` [Example 178, (R)-1-{2-(1-Fluoro-cyclopropyl)-4-[4-(2-methoxy-phenyl)-piperidin-1-yl]-quinazolin-6-yl}-pyrrolidin-3-ol], the EC50 was in the range of 0.5 to 2 µM.

On to `COc1ccccc1C1CCN(c2nc(C3CC3)nc3ccc(N(C)CC(=O)O)cc23)CC1` [Example 179, ({2-Cyclopropyl-4-[4-(2-methoxy-phenyl)-piperidin-1-yl]-quinazolin-6-yl}-methyl-amino)-acetic acid], for which the concentration giving a half-maximal response (EC50) is below 0.5 µM.

As to `COc1ccccc1C1CCN(c2nc(C3(F)CC3)nc3ccc(N(C)CC(=O)O)cc23)CC1` [Example 180, 2-((2-(1-fluorocyclopropyl)-4-(4-(2-methoxyphenyl)piperidin-1-yl)quinazolin-6-yl)(methyl)amino)acetic acid], the EC50 is 2 to 10 µM.

As to `COc1ccccc1C1CCN(c2nc(C3(F)CCC3)nc3c(Cl)cc(N(C)CCO)cc23)CC1` [Example 181, 2-((8-chloro-2-(1-fluorocyclobutyl)-4-(4-(2-methoxyphenyl)piperidin-1-yl)quinazolin-6-yl)(methyl)amino)ethanol], the EC50 fell in the range of 0.5 to 2 µM.

`COc1ccccc1C1CCN(c2nc(C3(F)CCC3)nc3c(Cl)cc(N4CC[C@@H](O)C4)cc23)CC1` [Example 182]: the 50% effective concentration (EC50) was 2 to 10 µM.

Regarding `COc1ccccc1C1CCN(c2nc(C3(F)CCC3)nc3c(Cl)cc(N4CC[C@H](O)C4)cc23)CC1` [Example 183], the EC50 lay within 2 to 10 µM.

As to `COC1CCCC1N1CCN(c2nc(C3CC3)nc3ccc(N(C)CCO)cc23)CC1` (stereo not shown) [Example 184, 2-({2-Cyclopropyl-4-[4-(2-methoxy-cyclopentyl)-piperazin-1-yl]-quinazolin-6-yl}-methyl-amino)-ethanol], the EC50 is above 10 µM.

Regarding `CCCN(C)c1ccc2nc(C3CC3)nc(N3CCN(C4CCCC4OC)CC3)c2c1` (stereo not shown) [Example 185, 2-cyclopropyl-4-(4-(2-methoxycyclopentyl)piperazin-1-yl)-N-methyl-N-propylquinazolin-6-amine], the half-maximal effective concentration (EC50) was above 10 µM.

Source of the values: US10118902B2 (Sanford Burnham Prebys Medical Discovery Institute, priority 2014, dated 2018).
